Measured values from ChEMBL document CHEMBL3808310, “New anti-inflammatory sterols from a gorgonian Pinnigorgia sp” (2016).

Legend:
RAW264.7 [1] = assay: Antiinflammatory activity in mouse RAW264.7 cells assessed as reduction in LPS-induced COX-2 protein levels at 10 uM preincubated for 10 mins followed by LPS challenge for 16 hrs by Western blot analysis; assay type: functional; design: scale not given: the % may be the effect or the level left
RAW264.7 [2] = assay: Antiinflammatory activity in mouse RAW264.7 cells assessed as reduction in LPS-induced iNOS protein levels at 10 uM preincubated for 10 mins followed by LPS challenge for 16 hrs by Western blot analysis; assay type: functional; design: scale not given: the % may be the effect or the level left

Compound	Activity (RAW264.7 [1]) [%]	Activity (RAW264.7 [2]) [%]
CC(C)[C@@H](C)/C=C/[C@@H](C)[C@H]1CC[C@H]2C3=C(CC[C@]12C)[C@@]1(C)CC[C@H](O)C[C@]12O[C@@H]2[C@@H]3O	54	41.1
C[C@@H]1C[C@H]2[C@@H]3CCC4=CC(=O)C=C[C@]4(C)[C@@]3(F)[C@@H](O)C[C@]2(C)[C@@]1(O)C(=O)CO [DEXAMETHASONE]	1.7	9.6
CC(=O)OCC[C@]1(C)[C@@H]([C@H](C)CC[C@H](C)C(C)C)CC[C@H]1C1=C[C@H](O)[C@@]2(O)C[C@@H](O)CC[C@]2(C)C1=O	54	33.2
